Measured values taken from patent US20140377340A1, “HLA-DR BINDING PEPTIDES AND THEIR USES” (priority 2007, published 2014).

Experiments:
purified HLA DRB1*0101 = target: T1, purified HLA DRB1*0101 (Homo sapiens, UniProt P01903+P01911, A100R/D57E/F55L/F60I/F76Y/I96L/L162R/M171V/P40L/Q125E/R42F/V115G/Y59C); assay: HLA-DR radioligand binding inhibition assay, DRB1*0101; settings: IC50 nM purified HLA DRB1 *0101, purified HLA DRB1*0101
T1 construct: purified from EBV transformed homozygous cell lines or single MHC allele transfected 721.221, C1R, or fibroblast lines; made in house
Experimental: (§1) Instead, wells of an opaque white 96-well Optiplate (Packard) are coated with 3 μg (100 μl@ 30 μg/ml) of HLA-specific antibody (Ab) that “capture” complexes of radiolabeled MHC and unlabeled peptide transferred from the molecular binding assay plate in 100 μl of 0.05% NP40/PBS. After a 3-hour incubation period, the supernatant is decanted and scintillation fluid (Microscint 20) added. Captured complexes are then measured on a microplate scintillation and luminescence counter (TopCount NXTTM; Packard).
(§2) HLA-DR purification. Fifteen distinct HLA-DR molecules were used in quantitative assays to measure the binding of peptides to solubilized HLA-DR molecules. […] Briefly, columns of inactivated Sepharose CL4B and Protein A Sepharose were used as pre-columns. HLA-DR molecules were captured by passage of lysates over LB3.1 monoclonal antibody (anti-HLA-DRA) columns. Antibody columns were washed with 10 mM Tris-HCL, pH8.0 with 1% (v/v) NP-40, followed by PBS containing 0.4% (w/v) n-octylglucoside.
(§3) Briefly, 1-10 nM of radiolabeled peptide was co-incubated for 2 days at either room temperature or 37° C. with 1 μM to 1 nM purified HLA-DR molecules in the presence of a cocktail of protease inhibitors. Assays were performed at various pH conditions, ranging from pH 4 to pH 7. […] After incubation, the percentage of HLA-DR-bound radioactivity is determined by capturing HLA-DR/peptide complexes on Optiplates (Packard Instruments, Meriden, Conn.) coated with the LB3.1 antibody and determining bound counts per minute using the TopCount microscintillation counter (Packard Instruments).

purified HLA DRB1*0405 = target: T2, purified HLA DRB1*0405 (Homo sapiens, UniProt P01903+P01911, A100R/A169T/D86S/F76Y/I96L/K127E/L162R/M171V/N62H/P40V/Q125Y/R42H/S133A/S149N/S66Y/V115G/V209L/W38E); assay: HLA-DR radioligand binding inhibition assay, DRB1*0405; settings: IC50 nM purified HLA DRB1 *0405, purified HLA DRB1*0405
T2 construct: purified from EBV transformed homozygous cell lines or single MHC allele transfected 721.221, C1R, or fibroblast lines; made in house
Experimental: as §1, §2, §3

purified HLA DRB5*0101 = target: T3, purified HLA DRB5*0101 (Homo sapiens, UniProt P01903+Q30154); assay: HLA-DR radioligand binding inhibition assay, DRB5*0101; settings: IC50 nM purified HLA DRB5 *0101, purified HLA DRB5*0101
T3 construct: purified from EBV transformed homozygous cell lines or single MHC allele transfected 721.221, C1R, or fibroblast lines; made in house
Experimental: as §1, §2, §3

purified HLA DRB1*0401 = target: T4, purified HLA DRB1*0401 (Homo sapiens, UniProt P01903+P01911, A100K/A169T/F76Y/I96L/K127E/L162R/M171V/N62H/P40V/Q125Y/R42H/S133A/S149N/S66Y/V115G/V209L/W38E); assay: HLA-DR radioligand binding inhibition assay, DRB1*0401; settings: IC50 nM purified HLA DRB1 *0401, purified HLA DRB1*0401
T4 construct: purified from EBV transformed homozygous cell lines or single MHC allele transfected 721.221, C1R, or fibroblast lines; made in house
Experimental: as §1, §2, §3

purified HLA DRB1*1101 = target: T5, purified HLA DRB1*1101 (Homo sapiens, UniProt P01903+P01911, A100R/A169T/A87E/I96F/K41T/L162R/M171V/P40S/Q125H/Q178H/Q39Y/Q99D/R42S/S66Y/T262R/V115G/W38E); assay: HLA-DR radioligand binding inhibition assay, DRB1*1101; settings: IC50 nM purified HLA DRB1 *1101, purified HLA DRB1*1101
T5 construct: purified from EBV transformed homozygous cell lines or single MHC allele transfected 721.221, C1R, or fibroblast lines; made in house
Experimental: as §1, §2, §3

purified HLA DRB1*1302 = target: T6, purified HLA DRB1*1302 (Homo sapiens, UniProt P01903+P01911, A100E/A169T/K41T/L162R/M171V/P40S/Q125H/Q178H/Q39Y/Q99D/R42S/S66N/T262R/V115G/W38E/Y61H); assay: HLA-DR radioligand binding inhibition assay, DRB1*1302
T6 construct: purified from EBV transformed homozygous cell lines or single MHC allele transfected 721.221, C1R, or fibroblast lines; made in house
Experimental: as §1, §2, §3

purified HLA DRB1*0701 = target: T7, purified HLA DRB1*0701 (Homo sapiens, UniProt P01903+P01911, A100R/A102G/A103Q/D57E/D86V/E43K/F76Y/K127E/L162R/M171V/P40G/Q125H/Q99D/R33Q/R42Y/R54Q/S133A/S66F/T210M/V115G/Y107V/Y59L/Y89S); assay: HLA-DR radioligand binding inhibition assay, DRB1*0701; settings: IC50 nM purified HLA DRB1 *0701, purified HLA DRB1*0701
T7 construct: purified from EBV transformed homozygous cell lines or single MHC allele transfected 721.221, C1R, or fibroblast lines; made in house
Experimental: as §1, §2, §3

T5 sequence (P01903 26-254, other chains not shown): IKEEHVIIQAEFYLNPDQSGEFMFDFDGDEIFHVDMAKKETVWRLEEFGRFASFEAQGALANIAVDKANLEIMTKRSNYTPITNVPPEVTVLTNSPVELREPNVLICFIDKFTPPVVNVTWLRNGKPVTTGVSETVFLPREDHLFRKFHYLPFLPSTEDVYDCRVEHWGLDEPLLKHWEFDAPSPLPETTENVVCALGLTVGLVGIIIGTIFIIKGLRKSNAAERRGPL

| SMILES | IC50 (purified HLA DRB5*0101) | IC50 (purified HLA DRB1*1101) | further results |
| --- | --- | --- | --- |
| CC[C@H](C)[C@H](NC(=O)[C@H](CC(C)C)NC(=O)[C@H](C)NC(=O)[C@H](CC(C)C)NC(=O)CN)C(=O)N[C@@H](Cc1c[nH]cn1)C(=O)N[C@@H](Cc1c[nH]cn1)C(=O)N[C@@H](CC(N)=O)C(=O)N[C@H](C(=O)N[C@@H](Cc1c[nH]cn1)C(=O)N[C@@H](CC(C)C)C(=O)N[C@@H](CS)C(=O)N[C@@H](Cc1ccccc1)C(=O)N[C@H](C(=O)N[C@@H](Cc1c[nH]cn1)C(=O)O)C(C)C)[C@@H](C)O [Peptide 9019.0058] |  | 2800 nM | IC50 (purified HLA DRB1*0401): 414 nM; IC50 (purified HLA DRB1*1302): 18 nM |
| CC[C@H](C)[C@H](NC(=O)[C@H](CCCCN)NC(=O)[C@H](CCC(N)=O)NC(=O)[C@@H](N)CCC(N)=O)C(=O)N[C@@H](CCCNC(=N)N)C(=O)N[C@@H](CCCCN)C(=O)N[C@@H](Cc1ccc(O)cc1)C(=O)N[C@H](C(=O)N[C@@H](CCSC)C(=O)N[C@@H](CCCNC(=N)N)C(=O)N[C@@H](CCCNC(=N)N)C(=O)N[C@@H](CC(C)C)C(=O)N[C@@H](CC(C)C)C(=O)N[C@@H](CCC(N)=O)C(=O)N[C@@H](CCC(=O)O)C(=O)O)[C@@H](C)O [Peptide 9019.0070] | 340 nM |  |  |
| CC[C@H](C)[C@H](NC(=O)[C@H](CCCNC(=N)N)NC(=O)[C@@H](N)CCSC)C(=O)N[C@@H](CC(C)C)C(=O)N[C@@H](CCCCN)C(=O)N[C@@H](CCC(=O)O)C(=O)N[C@H](C(=O)N[C@@H](CCC(=O)O)C(=O)N[C@@H](CC(C)C)C(=O)N[C@@H](CCCNC(=N)N)C(=O)N[C@@H](CCCCN)C(=O)N[C@H](C(=O)N[C@@H](CCCCN)C(=O)N[C@H](C(=O)N[C@@H](CC(C)C)C(=O)O)C(C)C)C(C)C)[C@@H](C)O [Peptide 9019.0072] |  | 2130 nM |  |

Second part, led by results:

| IC50 (purified HLA DRB5*0101) | IC50 (purified HLA DRB1*1101) | SMILES | further results |
| --- | --- | --- | --- |
| 17 nM |  | CC(C)C[C@H](NC(=O)[C@H](C)NC(=O)[C@H](CC(C)C)NC(=O)[C@@H](N)CC(C)C)C(=O)N[C@@H](CC(C)C)C(=O)N1CCC[C@H]1C(=O)N1CCC[C@H]1C(=O)NCC(=O)N[C@@H](C)C(=O)N[C@@H](C)C(=O)N[C@@H](CO)C(=O)N[C@H](C(=O)N[C@@H](CCC(N)=O)C(=O)N[C@H](C(=O)N[C@@H](CS)C(=O)O)C(C)C)[C@@H](C)O [Peptide 1622.02] | IC50 (purified HLA DRB1*0101): 17 nM; IC50 (purified HLA DRB1*0405): > 20000 nM |
| 3000 nM |  | CSCC[C@H](NC(=O)[C@H](CC(C)C)NC(=O)[C@H](CCC(N)=O)NC(=O)[C@@H](NC(=O)[C@@H](NC(=O)[C@H](CC(C)C)NC(=O)[C@H](CCC(N)=O)NC(=O)[C@@H](NC(=O)[C@@H](N)[C@@H](C)O)C(C)C)C(C)C)[C@@H](C)O)C(=O)N1CCC[C@H]1C(=O)N[C@@H](Cc1ccc(O)cc1)C(=O)NCC(=O)N[C@@H](CS)C(=O)N[C@@H](CC(C)C)C(=O)N[C@@H](CC(C)C)C(=O)O [Peptide 9019.0080] |  |
| 92 nM |  | CC[C@H](C)[C@H](NC(=O)[C@H](CCC(N)=O)NC(=O)[C@H](CCSC)NC(=O)[C@H](CS)NC(=O)[C@H](Cc1c[nH]c2ccccc12)NC(=O)[C@H](CC(N)=O)NC(=O)[C@H](CC(C)C)NC(=O)[C@@H](N)CC(C)C)C(=O)N[C@@H](C)C(=O)N[C@@H](CCCCN)C(=O)NCC(=O)N[C@@H](CCSC)C(=O)N[C@@H](CO)C(=O)N[C@@H](Cc1ccc(O)cc1)C(=O)N[C@@H](CC(C)C)C(=O)O [Peptide 9019.0082] | IC50 (purified HLA DRB1*0701): 380 nM |
